Patent US12576047B2, “Telomerase activating compounds for use in fertility and related applications” (Neuromagen Pharma Ltd, priority 2017, dated 2026)

What was measured:
telomerase = biological target: T1, telomerase (Mus musculus, UniProt O70372); experiment: Telomerase activity in mouse ovary by TRAP assay after s.c. injection; type: in vivo; details: single dose 6 mg/Kg s.c., 12 hours
T1 construct: the ovaries were removed, and proteins extract used for measuring telomerase activity by TRAP assay; from tissue; host or cells: ovary of female ICR mice
T1 sequence (O70372 1-1122): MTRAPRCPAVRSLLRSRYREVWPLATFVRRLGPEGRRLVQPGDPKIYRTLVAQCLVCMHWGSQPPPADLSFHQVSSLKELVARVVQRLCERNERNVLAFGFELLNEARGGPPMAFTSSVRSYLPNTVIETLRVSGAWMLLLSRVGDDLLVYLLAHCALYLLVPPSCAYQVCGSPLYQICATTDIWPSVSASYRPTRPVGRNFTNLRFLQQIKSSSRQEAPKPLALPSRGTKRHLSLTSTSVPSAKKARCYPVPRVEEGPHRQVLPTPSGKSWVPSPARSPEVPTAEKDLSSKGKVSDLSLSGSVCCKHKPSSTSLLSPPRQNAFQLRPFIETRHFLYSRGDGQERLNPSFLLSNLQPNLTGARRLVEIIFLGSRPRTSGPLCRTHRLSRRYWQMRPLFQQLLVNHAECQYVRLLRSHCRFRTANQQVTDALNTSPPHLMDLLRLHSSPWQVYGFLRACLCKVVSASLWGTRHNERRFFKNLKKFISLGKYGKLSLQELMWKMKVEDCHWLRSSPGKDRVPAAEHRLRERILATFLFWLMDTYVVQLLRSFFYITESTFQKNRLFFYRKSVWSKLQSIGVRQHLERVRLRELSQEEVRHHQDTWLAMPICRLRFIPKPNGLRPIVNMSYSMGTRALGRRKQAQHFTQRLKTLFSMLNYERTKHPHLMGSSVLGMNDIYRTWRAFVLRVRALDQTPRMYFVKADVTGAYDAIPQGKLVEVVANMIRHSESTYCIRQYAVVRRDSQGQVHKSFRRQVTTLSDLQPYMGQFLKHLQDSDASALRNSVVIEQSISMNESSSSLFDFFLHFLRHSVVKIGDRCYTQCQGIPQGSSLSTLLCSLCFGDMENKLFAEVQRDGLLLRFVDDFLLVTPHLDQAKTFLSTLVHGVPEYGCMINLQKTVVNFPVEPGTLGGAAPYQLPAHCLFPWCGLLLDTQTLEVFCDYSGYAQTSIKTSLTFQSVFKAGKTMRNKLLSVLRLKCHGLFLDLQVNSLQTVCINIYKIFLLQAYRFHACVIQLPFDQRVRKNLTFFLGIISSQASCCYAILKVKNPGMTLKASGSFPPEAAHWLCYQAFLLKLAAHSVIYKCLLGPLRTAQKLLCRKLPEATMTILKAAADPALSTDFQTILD
Description: The ovaries were homogenized and centrifuged at 1200 RPM at 4° C. for 10 min, then suspended in CHAPS buffer (10 mM Tris-HCl pH-7.0, 1 mM MgCl2, 1 mM EDTA […], 0.1 mM PMSF, 0.5% 3 [(3 Cholamidopropyl)dimethylammonio]-propanesulfonic acid [CHAPS] and 10% glycerol) on ice for 30 min and centrifuged again at 13500 RPM at 4° C. for 30 min, the supernatant was collected. Total proteins concentration was determined using the Bio-Rad protein assay kit (Bio-Rad Laboratories, Germany).
Telomerase activity in mice ovary was evaluated by a slight modification of the TRAP assay [Grin, Y., T. Admoni, and E. Priel, Telomerase activity in the various regions of mouse brain: non-radioactive telomerase repeat amplification protocol (TRAP) assay. J Vis Exp, 2014 (91): p. e51865]. […] These products were separated on a 4.5% high-resolution agarose mini-gel and detected with Gel-Red solution (X10000 stock solution diluted to X3 working solution with 0.01M NaCl) for 20 minutes. […] Quantification of Telomerase Activity
TRAP assay products were quantified by densitometric analysis using the EZQuant software (EZQuant Ltd. Rehovot, Israel) and normalized to IS (Internal standard). […] The data which were normalized to the IS were calculated as % from the positive control values in each experiment. […]

LH = LH expression by RT-PCR in pituitary gland cells; type: cell-based, mouse; details: 50 nM, vs untreated
Description: FIGS. 29A, 29B, 29C and 29D: The embodied compounds affect the expression of gonadotropin hormones in pituitary gland cells. Cells (L T2) derived from the mouse pituitary gland were assessed for their secretion of LH and FSH at 6 (FIGS. 29A and 29B) and 12 hours (FIGS. 29C and 29D) following treatment with the indicated embodied compounds (50 nM). FSH and LH expression was determined by RT-PCR, and quantified from 5 different experiments, as assessed for significance, using the t test, one way ANOVA.

female mice = experiment: Progesterone levels in mouse serum; type: in vivo; details: compared to DMSO or UT, 12 hrs post treatment, P, E, and M stages
Description: Blood samples were taken from the sacrificed mouse and following centrifugation (3800 rpm, 10 min) the serum was sent to the clinical endocrinology laboratory (Soroka University Medical Center, Beer-Sheva, Israel) for determination of progesterone levels.

Row | SMILES | increase of telomerase activity in mouse ovary (telomerase; all examined ages (10 days, 18 days, 1 month, 3 months)) | LH expression (LH; 12 hours) | increase in the secretion of progesterone (female mice) | telomerase activity in mouse ovary at various ages (telomerase; ages 10 days to 3 months) | LH expression (LH; 6 hours post treatment)
1 | CC(c1cc(Br)c(O)c(Br)c1)(c1cc(Br)c(O)c(Br)c1)c1cc(Br)c(O)c(Br)c1 [Compound 68] | up to 1.5 fold | increased LH production above untreated levels | – | – | –
2 | CCOCc1cc(C(C)(c2cc(COCC)c(O)c(COCC)c2)c2cc(COCC)c(O)c(COCC)c2)cc(COCC)c1O [Compound 79] | – | – | up to 5 folds | significantly increased telomerase activity only in the ovary of 3 months old mouse | increased expression of LH above untreated levels
